Measurements as given in patent US20240384268A1, “Oligonucleotides” (Hudson Institute of Medical Research, priority 2021, published 2024).
In the oligonucleotide strings, read from the 5' end, every base follows the letter of its sugar. An asterisk marks phosphorothioate; unmarked linkages are phosphodiester. Other units and linkages are bracketed, terminal groups are in braces. A string of capitals states the bases alone. d = 2'-deoxy (DNA); m = 2'-O-methyl

Biological target: T1, human TLR9 (Homo sapiens, UniProt Q9NR96)
T1 construct: HA; host or cells: 293XL-hTLR9-HA (HEK293)
T1 sequence (Q9NR96 26-1032): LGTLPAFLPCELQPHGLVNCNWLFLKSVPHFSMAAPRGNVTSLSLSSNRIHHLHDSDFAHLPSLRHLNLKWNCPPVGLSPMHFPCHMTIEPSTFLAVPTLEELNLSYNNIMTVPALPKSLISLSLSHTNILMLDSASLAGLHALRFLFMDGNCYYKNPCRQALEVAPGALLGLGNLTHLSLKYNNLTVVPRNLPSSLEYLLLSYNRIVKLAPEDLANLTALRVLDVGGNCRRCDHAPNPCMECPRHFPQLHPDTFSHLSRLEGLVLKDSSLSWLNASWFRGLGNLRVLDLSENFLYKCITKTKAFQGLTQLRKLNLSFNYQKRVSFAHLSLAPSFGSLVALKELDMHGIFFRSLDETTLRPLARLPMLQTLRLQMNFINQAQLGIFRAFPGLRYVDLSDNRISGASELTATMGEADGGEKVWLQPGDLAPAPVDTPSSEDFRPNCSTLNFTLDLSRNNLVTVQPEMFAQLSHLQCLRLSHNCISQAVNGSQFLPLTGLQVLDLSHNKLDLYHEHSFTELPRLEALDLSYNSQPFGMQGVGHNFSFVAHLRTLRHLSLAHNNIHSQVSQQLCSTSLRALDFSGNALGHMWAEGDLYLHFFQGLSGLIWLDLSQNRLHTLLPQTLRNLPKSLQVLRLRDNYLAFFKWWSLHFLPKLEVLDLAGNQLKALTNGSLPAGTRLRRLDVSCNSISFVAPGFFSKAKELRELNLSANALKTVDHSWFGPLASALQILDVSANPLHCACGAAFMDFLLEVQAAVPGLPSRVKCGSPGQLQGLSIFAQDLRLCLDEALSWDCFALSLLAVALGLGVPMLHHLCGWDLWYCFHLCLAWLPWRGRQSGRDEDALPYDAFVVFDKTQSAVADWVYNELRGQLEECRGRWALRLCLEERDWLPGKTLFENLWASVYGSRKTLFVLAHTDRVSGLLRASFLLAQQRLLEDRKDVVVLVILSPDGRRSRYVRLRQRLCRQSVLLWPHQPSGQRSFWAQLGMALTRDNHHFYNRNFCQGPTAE
Experiment: HEK-TLR9 NF-κB-luciferase reporter, ODN2006 stimulation
Type: cell-based
Conditions: for TLR9 100 nM: MOE-modified ASO at 100 nM; for TLR9 100 nM / TLR9 500 nM: averaged NF-κB-Luciferase relative to ODN2006 condition; for TLR9 500 nM: MOE-modified ASO at 500 nM; for TLR9-500 nM: averaged NF-κB-Luciferase relative to ODN2006: HEK-TLR9, 500 nM ASO 45 min, then 200 nM ODN2006 overnight, percentage of ODN2006 only

In the case of “AGTCGTAGTTGCTTCCTAAC (antisense; 2'-MOE modified, pattern not given here) [MB21D1-1181 MOE]”, the “TLR9 100 nM” value is reported as 0.527 and the “TLR9 500 nM” value is reported as 0.341.

For “ATGCCATCCACTTGATAGGC (antisense; 2'-MOE modified, pattern not given here) [EGFR-2874 MOE]”, the “TLR9 100 nM” value was 0.712 and the “TLR9 500 nM” value was 0.589.

“CGGAGGTCTTGGCTTCGTGG (antisense; 2'-MOE modified, pattern not given here) [MB21D1-525 MOE]” was tested, and the “TLR9 100 nM” value was 0.938 and the “TLR9 500 nM” value was 0.556.

“CGGCATCCACCACGTCGTCC (antisense; 2'-MOE modified, pattern not given here) [EGFR-3267 MOE]” was tested, and the “TLR9 100 nM” value was 0.449 and the “TLR9 500 nM” value was 0.373.

With “GCCCATCCATGAGGTCCTGG (antisense; 2'-MOE modified, pattern not given here) [CTNN2B-2545 MOE]” the “TLR9 100 nM” value was 0.324 and the “TLR9 500 nM” value was 0.175.

For “GCTGACAAAGATTCACTGGT (antisense; 2'-MOE modified, pattern not given here) [HPRT-1353 MOE]”, the “TLR9 100 nM” value was 0.653 and the “TLR9 500 nM” value was 0.654.

“GGGTATCGAAAGAGTCTGGA (antisense; 2'-MOE modified, pattern not given here) [EGFR-3908 MOE]” was tested, and the “TLR9 100 nM” value was 0.349 and the “TLR9 500 nM” value was 0.203.

In the case of “GGTTTTGGCTGGGATCAAGT (antisense; 2'-MOE modified, pattern not given here) [CAMSAP1-4697 MOE]”, the “TLR9 100 nM” value is reported as 0.381 and the “TLR9 500 nM” value is reported as 0.200.

“GTCCAAGATCAGCAGTCTCA (antisense; 2'-MOE modified, pattern not given here) [CTNN2B-2341 MOE]” was tested, and the “TLR9 100 nM” value was 0.430 and the “TLR9 500 nM” value was 0.535.

“TCCGGCCTCGGAAGCTCTCT (antisense; 2'-MOE modified, pattern not given here) [MB21D1-168 MOE]” was tested, and the “TLR9 100 nM” value was 0.242 and the “TLR9 500 nM” value was 0.000.

For “TGGCAGGCTCAGTGATGTCT (antisense; 2'-MOE modified, pattern not given here) [CTNN2B-1642 MOE]”, the “TLR9 100 nM” value was 0.722 and the “TLR9 500 nM” value was 0.479.

In the case of “TGGGCTGGAATCCGAGTTAT (antisense; 2'-MOE modified, pattern not given here) [EGFR-4705 MOE]”, the “TLR9 100 nM” value is reported as 0.443 and the “TLR9 500 nM” value is reported as 0.241.

“TGGGTTACGGCTCAGTATGG (antisense; 2'-MOE modified, pattern not given here) [CAMSAP1-4295 MOE]” was tested, and the “TLR9 100 nM” value was 0.478 and the “TLR9 500 nM” value was 0.228.

With “TTTGCACACTTCGTACCCAA (antisense; 2'-MOE modified, pattern not given here) [CAMSAP1-4916 MOE]” the “TLR9 100 nM” value was 0.735 and the “TLR9 500 nM” value was 0.514.

For “mA*mA*mA*mA*mG*A*T*T*A*T*C*T*T*C*T*mU*mU*mU*mA*mA (AAAAGATTATCTTCTUUUAA; sugars from the 5' end m5 d10 m5, all phosphorothioate, methylation of C not given here) [[CDKN2B-AS1]2133]”, the “TLR9-500 nM: averaged NF-κB-Luciferase relative to ODN2006” value was 80.95%.

For “mA*mA*mA*mA*mU*A*A*G*G*G*G*A*A*T*A*mG*mG*mG*mG*mA (mA*mA*mA*mA*mU*dA*dA*dG*dG*dG*dG*dA*dA*dT*dA*mG*mG*mG*mG*mA; antisense) [[CDKN2B-AS1]79]”, the “TLR9-500 nM: averaged NF-κB-Luciferase relative to ODN2006” value was 67.44%.

“mA*mA*mA*mG*mA*T*T*A*T*C*T*T*C*T*T*mU*mU*mA*mA*mU (mA*mA*mA*mG*mA*dT*dT*dA*dT*dC*dT*dT*dC*dT*dT*mU*mU*mA*mA*mU) [[CDKN2B-AS1]2132]” was tested, and the “TLR9-500 nM: averaged NF-κB-Luciferase relative to ODN2006” value was 63.14%.

With “mA*mA*mA*mU*mG*T*C*C*T*G*G*C*C*C*T*mC*mA*mC*mU*mG (mA*mA*mA*mU*mG*dT*dC*dC*dT*dG*dG*dC*dC*dC*dT*mC*mA*mC*mU*mG) [[LINC-PINT]148.1]” the “TLR9-500 nM: averaged NF-κB-Luciferase relative to ODN2006” value was 46.72%.

In the case of “mA*mA*mG*mA*mU*T*A*T*C*T*T*C*T*T*T*mU*mA*mA*mU*mU (mA*mA*mG*mA*mU*dT*dA*dT*dC*dT*dT*dC*dT*dT*dT*mU*mA*mA*mU*mU) [[CDKN2B-AS1]2131]”, the “TLR9-500 nM: averaged NF-κB-Luciferase relative to ODN2006” value is reported as 59.77%.

For “mA*mA*mG*mG*mU*G*G*C*C*A*C*A*G*G*C*mA*mA*mC*mG*mU (mA*mA*mG*mG*mU*dG*dG*dC*dC*dA*dC*dA*dG*dG*dC*mA*mA*mC*mG*mU; antisense) [[CDKN2B-AS1]2198]”, the “TLR9-500 nM: averaged NF-κB-Luciferase relative to ODN2006” value was 84.28%.

For “mA*mA*mU*mA*mU*C*T*G*C*T*G*C*C*C*A*mC*mC*mU*mU*mC (mA*mA*mU*mA*mU*dC*dT*dG*dC*dT*dG*dC*dC*dC*dA*mC*mC*mU*mU*mC; antisense) [[CDKN2B-AS1]832]”, the “TLR9-500 nM: averaged NF-κB-Luciferase relative to ODN2006” value was 70.72%.

In the case of “mA*mA*mU*mU*mU*A*A*A*G*C*A*T*G*A*A*mU*mA*mU*mU*mA (mA*mA*mU*mU*mU*dA*dA*dA*dG*dC*dA*dT*dG*dA*dA*mU*mA*mU*mU*mA) [[CDKN2B-AS1]645]”, the “TLR9-500 nM: averaged NF-κB-Luciferase relative to ODN2006” value is reported as 53.26%.

With “mA*mC*mC*mC*mU*T*C*T*C*T*C*T*G*G*T*mC*mC*mC*mA*mU (mA*mC*mC*mC*mU*dT*dC*dT*dC*dT*dC*dT*dG*dG*dT*mC*mC*mC*mA*mU; antisense) [[LINC-PINT]115]” the “TLR9-500 nM: averaged NF-κB-Luciferase relative to ODN2006” value was 32.00%.

In the case of “mA*mG*mA*mA*mA*G*A*A*G*C*A*A*A*G*A*mU*mU*mC*mA*mA (AGAAAGAAGCAAAGAUUCAA; sugars from the 5' end m5 d10 m5, all phosphorothioate, methylation of C not given here) [[CDKN2B-AS1]1519]”, the “TLR9-500 nM: averaged NF-κB-Luciferase relative to ODN2006” value is reported as 68.12%.

With “mA*mG*mA*mU*mU*A*T*C*T*T*C*T*T*T*T*mA*mA*mU*mU*mU (AGAUUATCTTCTTTTAAUUU; sugars from the 5' end m5 d10 m5, all phosphorothioate, methylation of C not given here) [[CDKN2B-AS1]2130]” the “TLR9-500 nM: averaged NF-κB-Luciferase relative to ODN2006” value was 78.72%.

“mA*mG*mC*mC*mG*A*A*C*A*G*A*A*G*G*A*mG*mC*mG*mU*mC (AGCCGAACAGAAGGAGCGUC; sugars from the 5' end m5 d10 m5, all phosphorothioate, methylation of C not given here) [[LINC-PINT]587 KL]” was tested, and the “TLR9-500 nM: averaged NF-κB-Luciferase relative to ODN2006” value was 57.46%.

For “mA*mG*mG*mA*mU*T*A*A*A*A*C*A*G*A*T*mU*mA*mA*mU*mA (mA*mG*mG*mA*mU*dT*dA*dA*dA*dA*dC*dA*dG*dA*dT*mU*mA*mA*mU*mA) [[CDKN2B-AS1] 1775]”, the “TLR9-500 nM: averaged NF-κB-Luciferase relative to ODN2006” value was 63.48%.

In the case of “mA*mG*mG*mC*mC*T*C*C*A*G*T*G*T*C*T*mU*mC*mU*mC*mC (mA*mG*mG*mC*mC*dT*dC*dC*dA*dG*dT*dG*dT*dC*dT*mU*mC*mU*mC*mC; antisense) [[CDKN2B-AS1]2218]”, the “TLR9-500 nM: averaged NF-κB-Luciferase relative to ODN2006” value is reported as 81.24%.

For “mA*mU*mA*mU*mC*T*G*C*T*G*C*C*C*A*C*mC*mU*mU*mC*mU (AUAUCTGCTGCCCACCUUCU; antisense; sugars from the 5' end m5 d10 m5, all phosphorothioate, methylation of C not given here) [[CDKN2B-AS1]831]”, the “TLR9-500 nM: averaged NF-κB-Luciferase relative to ODN2006” value was 73.46%.

With “mA*mU*mG*mA*mC*A*T*T*T*C*G*T*G*G*C*mU*mC*mC*mU*mA (mA*mU*mG*mA*mC*dA*dT*dT*dT*dC*dG*dT*dG*dG*dC*mU*mC*mC*mU*mA) [[LINC-PINT]524.1]” the “TLR9-500 nM: averaged NF-κB-Luciferase relative to ODN2006” value was 107.12%.

“mC*mA*mA*mG*mC*C*C*C*A*G*C*G*T*T*C*mC*mU*mC*mC*mG (mC*mA*mA*mG*mC*dC*dC*dC*dA*dG*dC*dG*dT*dT*dC*mC*mU*mC*mC*mG; antisense) [[LINC-PINT]83.1]” was tested, and the “TLR9-500 nM: averaged NF-κB-Luciferase relative to ODN2006” value was 93.79%.

“mC*mA*mC*mC*mC*T*T*C*T*C*T*C*T*G*G*mU*mC*mC*mC*mA (CACCCTTCTCTCTGGUCCCA; antisense; sugars from the 5' end m5 d10 m5, all phosphorothioate, methylation of C not given here) [[LINC-PINT]116]” was tested, and the “TLR9-500 nM: averaged NF-κB-Luciferase relative to ODN2006” value was 102.85%.

“mC*mA*mC*mU*mG*T*A*T*T*T*T*A*T*T*A*mC*mA*mG*mA*mA (mC*mA*mC*mU*mG*dT*dA*dT*dT*dT*dT*dA*dT*dT*dA*mC*mA*mG*mA*mA; antisense) [[LINC-PINT]2990]” was tested, and the “TLR9-500 nM: averaged NF-κB-Luciferase relative to ODN2006” value was 117.42%.

For “mC*mA*mG*mG*mC*C*T*C*C*A*G*T*G*T*C*mU*mU*mC*mU*mC (mC*mA*mG*mG*mC*dC*dT*dC*dC*dA*dG*dT*dG*dT*dC*mU*mU*mC*mU*mC; antisense) [[CDKN2B-AS1]2219]”, the “TLR9-500 nM: averaged NF-κB-Luciferase relative to ODN2006” value was 66.99%.
